pKd: −log10 of the molar value.
Target: T1, MFSD7C (major facilitator superfamily domain containing 7C; FLVCR2; SLC49A2) (Homo sapiens, UniProt Q9UPI3)
T1 construct: N-terminal domain (NTD), amino acids 1–84
T1 sequence (Q9UPI3 1-84): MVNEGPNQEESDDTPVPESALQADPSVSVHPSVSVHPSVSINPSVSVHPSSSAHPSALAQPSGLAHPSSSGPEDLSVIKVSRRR
Assay: ITC with purified NTD; also heme absorbance-shift (Soret/Q band) and gel-filtration co-elution
Assay type: binding

Work on `C=CC1=C(C)C2=Cc3c(C=C)c(C)c4[n]3[Fe][n]3c(c(C)c(CCC(=O)O)c3=CC3=NC(=C4)C(C)=C3CCC(=O)O)=CC1=N2` [heme] yielded a pKd of roughly 6.00.

Source: article PMC7515921, “MFSD7C switches mitochondrial ATP synthesis to thermogenesis in response to heme” (Nature Communications, 2020)
